Measurements taken from US20030129629A1, “Methods and compositions for the identification, assessment, prevention, and therapy of human cancers” (Millennium Pharmaceuticals, Inc., priority 2000, published 2003).
Read-outs that look alike come from different tables or passages of the source.

Tests used:
[1] = tested on: 60 cancer cell lines (NCI 60 cancer cell line series); assay: NCI-DTP in vitro cancer screen, sulforhodamine B (SRB) growth inhibition, 48 hour exposure; type: cell-based, human
Method in brief: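 NCI-DTP panel of 60 cancer cell lines plated day 0 at line-specific densities, exposed from day 1 to compound at 5 ten-fold-spaced doses in duplicate wells. After 48 h, cell mass stained with sulforhodamine B; −log GI50 derived from dose–response curves, averaged, and classed Low, Medium or High sensitivity.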

[2] = tested on: 60 cancer cell lines (NCI 60 cancer cell line series); conditions: cited from earlier work

N.N.[Cl][Pt][Cl] [cisplatin, cis-Diamminedichloroplatinum (II), reference compound]
classification of cell line as Low(1), Medium(2), High(3) sensitivity to compound ([1]; Breast BT-549 CL5013): 2
classification of cell line as Low(1), Medium(2), High(3) sensitivity to compound ([1]; Breast HS-578T CL5006): 2
classification of cell line as Low(1), Medium(2), High(3) sensitivity to compound ([1]; Breast MCF7/ADRr CL5002): 2
classification of cell line as Low(1), Medium(2), High(3) sensitivity to compound ([1]; Breast MDA-MB-231 CL5005): 1
classification of cell line as Low(1), Medium(2), High(3) sensitivity to compound ([1]; Breast MDA-N CL5012): 2
classification of cell line as Low(1), Medium(2), High(3) sensitivity to compound ([1]; Breast T-47D CL5014): 1
classification of cell line as Low(1), Medium(2), High(3) sensitivity to compound ([1]; CNS SF-268 CL12014): 3
classification of cell line as Low(1), Medium(2), High(3) sensitivity to compound ([1]; CNS SF-539 CL12016): 2
classification of cell line as Low(1), Medium(2), High(3) sensitivity to compound ([1]; CNS SNB-75(I) CL12005): 2
classification of cell line as Low(1), Medium(2), High(3) sensitivity to compound ([1]; CNS U251(I) CL12009): 2
classification of cell line as Low(1), Medium(2), High(3) sensitivity to compound ([1]; Colon COLO-250 CL4010): 1
classification of cell line as Low(1), Medium(2), High(3) sensitivity to compound ([1]; Colon HCC-2998 CL4002): 2
classification of cell line as Low(1), Medium(2), High(3) sensitivity to compound ([1]; Colon HCT-15 CL4015): 1
classification of cell line as Low(1), Medium(2), High(3) sensitivity to compound ([1]; Colon HT29(I) CL4001): 1
classification of cell line as Low(1), Medium(2), High(3) sensitivity to compound ([1]; Colon SW-620 CL4009): 2
classification of cell line as Low(1), Medium(2), High(3) sensitivity to compound ([1]; Leukemia HL-60(I) CL7008): 3
classification of cell line as Low(1), Medium(2), High(3) sensitivity to compound ([1]; Leukemia K562(I) CL7005): 2
classification of cell line as Low(1), Medium(2), High(3) sensitivity to compound ([1]; Leukemia RPMI-8226(I) CL7010): 2
classification of cell line as Low(1), Medium(2), High(3) sensitivity to compound ([1]; Melanoma LOX IMVI CL10001): 3
classification of cell line as Low(1), Medium(2), High(3) sensitivity to compound ([1]; Melanoma M14 CL10014): 2
classification of cell line as Low(1), Medium(2), High(3) sensitivity to compound ([1]; Melanoma SK-MEL-28 CL10008): 2
sensitivity classification Low(1)/Medium(2)/High(3) ([1]; NSCLC NCI-H23(I) CL1001): 3
sensitivity classification Low(1)/Medium(2)/High(3) ([1]; NSCLC NCI-H460 CL1021): 3
sensitivity classification Low(1)/Medium(2)/High(3) ([1]; NSCLC NCI-H522 CL1003): 2
sensitivity classification Low(1)/Medium(2)/High(3) ([1]; Ovarian IGROV1 CL6010): 2
sensitivity classification Low(1)/Medium(2)/High(3) ([1]; Ovarian OVCAR-4 CL6002): 2
sensitivity classification Low(1)/Medium(2)/High(3) ([1]; Ovarian OVCAR-5 CL6003): 2
sensitivity classification Low(1)/Medium(2)/High(3) ([1]; Ovarian OVCAR-8 CL6005): 2
sensitivity classification Low(1)/Medium(2)/High(3) ([1]; Prostate DU-145 CL11003): 2
sensitivity classification Low(1)/Medium(2)/High(3) ([1]; Renal A498 CL9013): 1
sensitivity classification Low(1)/Medium(2)/High(3) ([1]; Renal RXF-393 CL9016): 2
sensitivity classification Low(1)/Medium(2)/High(3) ([1]; Renal UO-31 CL9004): 2
−Log (GI50) ([2]; Breast MCF7(I) CL5001): 5.5
−Log (GI50) ([2]; Ovarian SK-OV-3 CL6011): 5.2
